Results from patent publication US9176153B2, “Prevention therapy and prognosis/monitoring in sepsis and septic shock” (NEDERLANDSE ORGANISATIE VOOR […] ONDERZOEK TNO, priority 2002, dated 2015).
“Also recorded” adds a separate entry of the source.

What was measured:
LPS Re595 = experiment: liver uptake and serum residence of 125I-LPS after intravenous injection in mice; type: in vivo, Wild-type (C57B1/6) mice; conditions: for effect on behavior of 125I-LPS after intravenous injection (liver uptake, residence in blood): 125I-LPS Re595 10 μg/kg, LPS:apoCI 1:0.2 to 1:16, LPS:albumin 1:16
Protocol: Wild-type (C57B1/6) mice were anesthetized and, via the lower vena cava, injected intravenously with radioactively (^125I) labeled LPS Re595 (10 μg/kg) without, and with, respectively, apoCI (molar ratio LPS:apoCI=1:0.2, 1:0.5, 1:1 and 1:16) and bovine serum albumin (molar ratio LPS:albumin=1:16). Blood samples and bits of liver tissue were taken at t=2, 5, 10, 20 and 30 minutes after injection. After this, the mice were sacrificed. Next, the amounts of LPS in the blood sera and liver samples were quantified on the basis of the amount of radioactive radiation. Also, a serum sample was taken 30 minutes after injection of LPS:apoCI (1:1) and subjected to agarose gel electrophoresis to study the distribution of the ^125I-LPS over the various lipoproteins. Lipoprotein lipids were visualized with the aid of Sudan Black, and ^125I-LPS by means of autoradiography. In FIGS. 6A and 6B the amounts of ^125I-LPS in the liver and the blood serum, respectively, are plotted as a percentage of the injected dose against time (n=3.+−.SEM). […] Already at a molar ratio of 1:1, the uptake of LPS by the liver was reduced 8-fold. The strong binding of apoCI to LPS (see Example 2) therefore proves to be relevant in the blood too.

[1] = tested on: LPS Re595 (Salmonella minnesota); experiment: agarose gel electrophoresis of 125I-LPS incubated with human apoCI; type: binding
Protocol: LPS Re595 (Salmonella minnesota) was radioactively labeled with ^125I as described (Rensen, 1997) and incubated (30 min at 37° C.) with increasing amounts of human apoCI which has been isolated from human blood (Tournier, 1984). Next, the incubation volumes were transferred to an agarose gel (position Rf 0), after which, for 2 hours, an electrophoretic field was applied (so-called agarose gel electrophoresis). After electrophoresis, the ^125I-LPS was visualized by means of autoradiography. Through its negative charge, LPS tends to migrate to the positive pole (anode); which, however, is prevented in that the LPS forms large micellary structures that cannot pass the relatively small pores formed by the agarose matrix.
Also, the effect of increasing amounts of LPS on the migration of a fixed amount of apoCI was determined. For that purpose, the apoCI was visualized in the gel after electrophoresis by means of immunoblotting with a horseradish peroxidase-conjugated antibody directed against human apoCI (Academy Bio-Medical Company, Houston, USA; cat. 31H-G1b).

LPS = experiment: LPS-induced inhibition of apolipoprotein-specific sandwich ELISA; type: binding
Protocol: The apoCI level in blood plasma can be established in any suitable manner. Preferably, the apoCI level is determined with a sandwich Enzyme-Linked ImmunoSorbent Assay (sandwich ELISA). To this end, for instance 96-wells plates (medium-binding plates; Costar) are coated with a (10,000-fold dilution of a) polyclonal antibody to human apoCI generated in goat (goat-anti human apoCI; Academy Bio-Medical Company, Houston, USA; cat. 31A-Glb). Next, human blood plasma or serum is added (100,000-300,000-fold dilution), whereby the apoCI present therein is quantitatively bound by this primary antibody. […] The HRP is subsequently quantified by means of a stain reaction with 3,3′,5,5′-tetramethylbenzidine (TMB) as substrate, and the stain intensity is compared with a calibration curve which is constructed with pure human apoCI (Labconsult, Brussels, Belgium; cat. A50366H).
A particular amount of human apoCI (0.75 ng/mL) was incubated with LPS in increasing molar ratios, after which the apoCI concentration was determined with the aid of the human apoCI-specific sandwich ELISA as described above under F. The LPS-induced inhibition of the stain reaction from which the apoCI concentration is read, was determined as a percentage of the maximum staining in the absence of LPS (n=2.+−.SEM) (FIG. 3). […]

FITC-LPS Re595 [2] = experiment: monomerization of FITC-LPS by pure apolipoprotein (fluorescence dequenching); type: biochemical; conditions: FITC-LPS Re595 100 ng, molar ratios 1:1, 1:5, 1:10 and 1:20
Protocol: Finally, the effect of apoCI on the monomerization rate of LPS was studied. […] FITC-LPS Re595 (100 ng) was incubated with pure human apoCI (in molar ratios 1:1, 1:5, 1:10 and 1:20), after which the occurrence of fluorescence was followed in time with the aid of a fluorimeter.

FITC-LPS Re595 [3] = experiment: monomerization of FITC-LPS by murine plasma with different apoCI levels; type: biochemical, mouse
Protocol: We have determined the effect of the apoCI level in murine plasma on monomerization of FITC-LPS as described in Example 2. For that purpose, FITC-LPS was incubated with plasma that had been isolated from wild-type mice, genetically modified mice which are deficient for apoCI (apocl^−/−), or genetically modified mice which express the human apoCI hemizygote (APOC1^+/0) or homozygote (APOC1^+/+).
FITC-LPS Re595 (100 ng) was incubated with plasma (0.125%) isolated from the blood of the various mouse types, after which the occurrence of fluorescence was followed in time with the aid of a fluorimeter. The expression of human apoCI in mouse plasma led to an apoCI-dose dependent increase of the FITC-LPS monomerization, which was 32% at a maximum. […] This indicates not only that mouse-apoCI, like human apoCI, is capable of monomerizing LPS, but especially also that the endogenous presence of apoCI contributes for a considerable part to the total LPS-disaggregated capacity of mouse plasma.

TNFα = experiment: LPS-induced TNFα response in mice; type: in vivo, Wild-type (C57B1/6) mice
Protocol: Wild-type (C57B1/6) mice were injected, by way of the tail vein, with LPS Re595 (25 μg/kg) without, and with, apoCI (molar ratio LPS:apoCI=1:5). Blood samples were taken at t=0, 30, 60, 90, 120 and 180 minutes after injection. In the samples, subsequently, the amount of TNFα was quantified with the aid of a mouse-TNFα specific ELISA according to the accompanying instructions (Immunosource, Halle, Belgium, cat. no. BMS607MST), and the amounts of TNFα in the blood plasma were subsequently plotted against time.

## Bovine serum albumin: bovine serum albumin used as control protein [reference compound]
LPS Re595
  effect on behavior of 125I-LPS after intravenous injection (liver uptake, residence in blood): not effective

## TPDVSSALDKLKEFGNTLEDKARELISRIKQSELSAKMREWFSETFQKVKEKLKIDS (human apoCI peptide) [human apolipoprotein CI, 57 amino acids, 6.6 kDa, purified from human blood]
[1]; 0.5 molecules of apoCI with respect to 1 molecule of LPS, incubated 30 min at 37° C., 2 hours electrophoresis
  migration of 125I-LPS in agarose gel: complete migration of the LPS to the positive pole
[1]; fixed amount of apoCI, increasing amounts of LPS, immunoblotting
  migration of apoCI in agarose gel on binding of LPS: accelerated migration of apoCI to the positive pole
LPS; 200-fold molar excess of LPS to apoCI, apoCI 0.75 ng/mL, percentage of maximum staining in absence of LPS
  LPS-induced inhibition of the staining reaction of apoCI-specific sandwich ELISA: more than 40%
FITC-LPS Re595 [2]
  increase in FITC fluorescence (monomerization of LPS): dose-dependent monomerization of LPS micelles
FITC-LPS Re595 [2]; listed as ApoCI
  increase in FITC fluorescence (monomerization of LPS): increase strongly in a dose-dependent manner
FITC-LPS Re595 [3]; plasma 0.125% of APOC1+/0 or APOC1+/+ mice versus wild-type, maximum
  increase of the FITC-LPS monomerization by expression of human apoCI in mouse plasma: 32%
LPS Re595
  effect on behavior of 125I-LPS after intravenous injection (liver uptake, residence in blood): inhibit the decrease of LPS from the blood strongly and dose-dependently; also recorded: strongly reducing the uptake of LPS by the liver
LPS Re595; molar ratio LPS:apoCI 1:1, 125I-LPS Re595 10 μg/kg intravenously
  reduction of uptake of LPS by the liver: 8 fold
TNFα; LPS Re595 25 μg/kg with apoCI, molar ratio 1:5
  increase of the LPS-induced TNF level versus LPS alone: fourfold
TNFα; LPS Re595 25 μg/kg with apoCI, molar ratio LPS:apoCI 1:5, tail vein, versus 2.8 for LPS alone
  LPS-induced TNF level in blood plasma: 10.8 ng/mL
TNFα; equal amount of apoCI without LPS
  TNFα induction by apoCI without LPS: no TNFα inducing effect

## apoCIII: apolipoprotein CIII, 79 amino acids, two amphipatic helices, comparable size and structure to apoCI [reference compound]
LPS; comparable apoCIII-specific sandwich ELISA
  effect of LPS on quantification with apoCIII-specific sandwich ELISA: no effect
FITC-LPS Re595 [2]
  increase in FITC fluorescence (monomerization of LPS): hardly effective

B1: APDLSGTLESIPDKLKEFGNTLEDKARAAIEHIKQKEILTKTRAWFSEAFGKVKEKLKTTFS (protein)
chain: APDLSGTLESIPDKLKEFGNTLEDKARAAIEHIKQKEILTKTRAWFSEAFGKVKEKLKTTFS
modifications: Muss p.; SITE (1)..(62) primary amino acid sequence of apoCI
notes: endogenous mouse apolipoprotein CI in murine plasma
FITC-LPS Re595 [3]; plasma 0.125% of apoc1-/- mice versus wild-type
  reduction of monomerization of FITC-LPS owing to absence of mouse-apoCI: 60%
